Assay results from US20100266503A1, “Breast Cancer Methods, Medicaments and Agents” (priority 2007, published 2010).
Non-standard residues stand in square brackets, D forms with d. Residues, ends and D or L forms follow the SMILES beside them. *: point of attachment. Nle = CCCC[C@H](N)C(=O)O; Cbz = O=C(OCc1ccccc1)*

Assays:
Assay type in all cases: cell-based
[1] = test system: MDA-MB-231, T47-D and MCF-7 breast cancer cell lines; experiment: Proliferation of breast cancer cell lines treated with GSIs for 72 h, Coulter Counter cell count; details: tested 10 nM to 50 μM
Description: Graphs illustrating the effects of three GSIs: (A) DAPT (N-[N-(3,5-Difluorophenacetyl-L-alanyl)]-S-phenylglycine t-butyl ester), (B) Compound E ((2S)-2-{[(3,5-Difluorophenyl)acetyl]amino}-N-[(3S)-1-methyl-2-oxo-5-phenyl-2,3-dihydro-1H-1,4-benzodiazepin-3-yl]propanamide) and (C) GSI1 (Z-Leu-Leu-Nle-CHO) on proliferation in three breast cancer cell lines (MDA-MB-231, T47-D and MCF-7 cells). Cells were treated with the GSIs at different concentrations for 72 hours and the number of cells counted.
FIG. 6 illustrates the effect of three GSIs, DAPT, Compound E and GSI1 on proliferation in three breast cancer cell lines, MDA-MB-231 [Oestrogen receptor (ER) negative, epidermal growth factor receptor (EGFR) and HER-2 strongly positive, increasingly metastatic T47-D-MCF-MDA], T47-D [weakly ER positive, progesterone receptor positive, strongly EGFR (HER-1, cERB-B1) positive and HER-2(c-ERB-B2) positive] and MCF-7 [highly ER positive and very weakly EGFR and HER-2 positive if at all]. The breast cancer cell lines were treated with the 3 GSIs for 72 h. 20,000 cells were seeded into 24 well plates in triplicate and allowed to adhere overnight. […] After 72 hours the media was removed and the adherent cells removed and counted on a Coulter Counter. […]

[2] = test system: Gamma Secretase Activity in breast cancer cell lines; experiment: Gamma-Secretase Activity Assay (R&D Systems kit) upon GSI1 treatment; details: 750 nM, 2 uM, 5 uM; 24 and 48 hours
Description: 1.5×10^6 cells were plated out and allowed to adhere overnight. The next day, cells were treated with increasing concentrations of GSI1 (750 nM, 2 uM, 5 uM) for 24 and 48 hours. We used the R&D Systems Gamma Secretase Activity Kit (as previously reported- ref from R&D Spec sheet) to determine Gamma Secretase Activity in breast cancer cell lines. Cells were washed twice with ice-cold PBS and all following steps, according to manufacturer's protocol were performed at 4 degrees. Briefly, cells were harvested in the Cell Extraction buffer, and incubated on ice for at least 10 minutes, to allow for maximal Buffer activity. Lysates were centrifuged at 10,000×g for 1 minute. Supernatants were collected with a total protein yield between 0.5-1 mg/ml. Pierce BCA Protein Assay was used to determine protein concentration in each sample. 200 microg of was used and incubated with the gamma-secretase fluorogenic substrate for 2 hours at 37° C. Fluorescence was measured at 355/460 nm.

T47D cells = experiment: Annexin V staining after GSI1
Description: (§1) We next did Annexin V staining which is a marker of apoptosis. Cells were treated with GSI1 for 0, 7, 24 and 48 hours. After trypsinizing, the cells were washed with PBS 5 times and then treated with RNAase (100 μg/ml) for 20 mins then propidium iodide was added at 50 μg/ml per 1×10^7 cells, and incubated overnight at 4° C. The samples were then filtered through a 70 μm mesh and run on a FACS with the following settings: Forward scatter 113, side scatter 356 and PE setting 380. Although there was an increase in staining indicating apoptosis, this was only approximately 10%. For example, in MDA-MB-231 cells there was a 5% increase in Annexin V staining after 7 hours of treatment and in T47D and MCF-7 cells there was an 8% increase in Annexin V staining. We have repeated these experiments with full cell cycle analysis at 7, 24 and 48 h post treatment and again detect apoptosis but […]. […] Nevertheless it is likely that cell proliferation is inhibited via another mechanism as opposed to the induction of cellular death.

MCF-7 cells = experiment: Annexin V staining after GSI1
Description: as §1

MDA-MB-231 cells = experiment: Annexin V staining after GSI1; details: after 7 hours of treatment
Description: as §1

[3] = test system: L226U19 and L226TS4 cells; experiment: SRB proliferation of GSI1 on normal L226 cell lines; details: tested at 10-80 μM; the two L226 cell lines
Description: Graphs illustrating the effects of GSI1, at different concentrations, on proliferation in four normal cell lines: (A) MCF-10A cells, (B) MCF-10A, (C) L226U19 cells and (D) L226TS4 cells.
The effect of GSI1 on proliferation in normal cell lines was investigated as, illustrated in FIG. 8. […] Therefore we repeated in all 3 normal lines (MCF-10A, L226U19 and L226TS4) at much higher concentrations (10 μM, 20 μM, 40 μM, 60 μM and 80 μM). 10 μM GSI1 was required to kill the MCF-10A cells and over 40 μM GSI1 was required to kill the two L226 cell lines. MCF-10A cells were cultured in DMEM (Invitrogen 11995-040), […] Insulin (Sigma, 11882), 20 ng/ml hEGF (Trevigen, 3443-050-01), 100 ng/ml Cholera Toxin (Sigma, C8052), 500 ng/ml Hydrocortisone (Sigma, H0888), 5% Horse Serum +100U/m1 penicillin, 0.1 mg/ml streptomycin, 2 mM L-glutamine at 37° C. in 5% CO2. L226U19 and TS4 cells were cultured in DME: F12 plus 10% FCS, 5 μg/ml insulin, 1 μg/ml Hydrocortisone, 10 ng/ml hEGF, 10 ng/ml Cholera toxin 100 U/ml penicillin, 0.1 mg/ml streptomycin, 2 mM L-glutamine at 37° C. in 5% CO2.

CCCC[C@@H](C=O)NC(=O)[C@H](CC(C)C)NC(=O)[C@H](CC(C)C)NC(=O)OCc1ccccc1 [GSI1, Z-Leu-Leu-Nle-CHO] (Cbz-Leu-Leu-[Nle]-aldehyde)
concentration that virtually eliminates all the cells [1]: 1 µM
reduction in gamma-secretase activity [2]: dose dependant and already significant at the dose of 750 nM
increase in Annexin V staining (T47D cells): 8%
increase in Annexin V staining (MCF-7 cells): 8%
increase in Annexin V staining (MDA-MB-231 cells): 5%
concentration required to kill the cells [3]: over 40 μM
